Read-outs that look alike come from different tables or passages of the source. A value given as a limit tells only on which side of the number the result lay.

This is an account of results in US20240336625A1, “SULFONIMIDAMDE COMPOUNDS AND USES THEREOF” (Genentech, Inc., priority 2021, published 2024).

Series [1] has as its system NLRP3 dependent inflammasome pathway. As to the kind of experiment: THP-1 ASC-GFP Speck Assay. It counts as cell-based. To be noted: THP1-ASC-GFP; THP-1 ASC-GFP cells, LPS primed, 10 μM nigericin. As to the method: Cell Culture: THP-1 ASC-GFP cell line is purchased from Invivogen, San Diego, for inflammasome activation assay. THP-1 ASC-GFP cells stably express a 37.6 kDa ASC::GFP fusion protein that enables monitoring of spec formation by microscopy after activation of NLRP3 dependent inflammasome pathway. Cells are maintained at a density of 600,000 cells/mL in growth media consisting of RPMI 1640, 2 mM L-glutamine, 25 mM HEPES and 10% heat inactivated fetal bovine serum at 37° C. and 5% CO2. Cells are passaged every 3-4 days and used for assays for up to 20 passages.
NLRP3 inflammasome activation assay: THP-1 ASC-GFP cells are collected by centrifuging cells at 800 RPM for 5 minutes. Cell culture supernatant is removed and cells are resuspended in fresh media at density of 1×10^6 cells/mL in assay media consisting of RPMI 1640, 2 mM L-glutamine, 25 mM HEPES and 10% heat inactivated fetal bovine serum.
Phorbol 12-myristate 13-acetate (PMA) (Invivogen, tlrl-pma) is added to the cell suspension at a final concentration of 500 ng/ml and mixed thoroughly. 40,000 cells are added per well of a 384 well plate and differentiated into macrophages overnight at 37° C. and 5% CO2. […]
Imaging ASC-GFP specks: THP-1 ASC-GFP cells are imaged in 488 and Hoechst channels. […] Percentage of cells with a spec is calculated by dividing the number of GFP positive spots by total number of cells.

A short description of series [2]: Rat Pharmacokinetic (PK) Studies. It counts as in vivo, Sprague-Dawley rats. The following applies: male, Sprague-Dawley, plasma; for bioavailability: 1 mg/kg PO vs 0.5 mg/kg IV cassette dose. On the procedure: Studies were performed at WuXi AppTech Co., Ltd (Shanghai, P.R. China). Food and water were available ad libitum except for animals that were dosed oral doses in pharmacokinetic (PK) studies, which were fasted overnight before dosing of test compounds. Six male Sprague-Dawley rats, aged 6-9 weeks with body weight of 200-300 g were obtained from Vital River Laboratory Animal Technology Co., Ltd., Beijing, P.R. China and were randomly allocated to two dose groups (3 rats were used for the IV group and 3 rats for the PO group). Animals in Group 1 were given a single IV bolus cassette dose of 0.5 mg/kg of test compounds at a dose volume of 1 mL/kg, formulated in DMSO/PEG400/Water (10/60/30). Animals in Group 2 were given a 1 mg/kg PO cassette dose of test compounds at a dose volume of 1 mL/kg, formulated in 0.5% Methyl cellulose/0.2% Tween 80 (MCT) as a suspension. Blood samples were collected via catheter at the femoral artery into tubes containing K2EDTA as an anticoagulant. Both groups were sampled at 0.033, 0.083, 0.25, 0.5, 1, 2, 4, 8 and 24 hours post-dose for blood. All samples were stored at −80° C. until analysis. The concentration of test compounds in each blood or plasma sample was determined by LC-MS/MS analysis.
PK parameters were calculated by noncompartmental methods as described in Gibaldi and Perrier (1982) using Phoenix™ WinNonlin (Certara, Princeton, NJ) version 8.3.4.295. Parameters are presented as mean±SD. Bioavailability (F) was determined by dividing the dose-normalized area under the plasma concentration-time curve from time 0 extrapolated to infinity (AUCinf) for each animals dosed orally by the dose-normalized mean AUCinf determined from the animals dosed intravenously.

For series [3], the system named is NLRP3 inflammasome pathway. As to the kind of experiment: Human Whole Blood Assay (IL-1β release, LPS + ATP). It counts as cell-based. The following applies: read-out: HWB IC90. As to the method:
The ability of selected compounds to inhibit IL-1beta production in human blood was assessed in a human whole blood assay with lipopolysaccharide.
Fresh human whole blood (HWB) was obtained from healthy donors. […] At the end of stimulation, the plates were centrifuged 2 min×3000 rpm, and supernatant transferred into fresh plates and stored at −80° C. until IL-1β analysis. IL-1b levels were measured using electrochemiluminescence immunoassay with an anti-IL-1b antibody as a primary detection agent.

The target in series [4] is T1, hPXR nuclear receptor (Homo sapiens, UniProt O75469).
T1 construct: expressed in transfected cells
T1 sequence (O75469 1-434): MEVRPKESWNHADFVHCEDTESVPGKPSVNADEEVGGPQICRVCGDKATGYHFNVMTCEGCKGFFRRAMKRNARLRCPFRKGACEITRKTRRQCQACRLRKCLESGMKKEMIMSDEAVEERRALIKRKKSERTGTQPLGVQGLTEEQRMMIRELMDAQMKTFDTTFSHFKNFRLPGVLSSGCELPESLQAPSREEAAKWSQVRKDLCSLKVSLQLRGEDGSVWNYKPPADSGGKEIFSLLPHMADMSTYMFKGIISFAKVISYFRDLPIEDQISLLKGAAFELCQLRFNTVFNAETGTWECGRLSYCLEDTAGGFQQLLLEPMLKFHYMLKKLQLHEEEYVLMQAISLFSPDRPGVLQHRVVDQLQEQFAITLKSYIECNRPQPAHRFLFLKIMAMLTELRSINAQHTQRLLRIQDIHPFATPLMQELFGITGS
As to the kind of experiment: PXR Activation Assay. It is filed as cell-based. To be noted: relative to positive control (rifampicin). As to the method:
Hepatoma cells either expressing an endogenous human […] or transfected with the hPXR nuclear receptor and the corresponding response elements were seeded in a 96-well plate. Twenty-four hours after seeding, the cells were treated with six distinct concentrations of test compounds in duplicate wells, and cells then returned to the incubator for an additional 24 h. At the end of this incubation period, the number of viable cells/well was determined using Promega's Cell Titer Fluor cytotoxicity assay. Following this assay, Promega's ONE-Glo was added to the same wells and reporter gene activity assessed.
Data processed using MS-Excel was provided as the mean (n=2) of the fold receptor activation relative to vehicle-treated cells at each of the six different doses. All activation data was normalized to the number of viable cells/well. Results were also expressed as a percentage of the response given by the appropriate positive control (rifampicin) at a 10 μM dose. EC50 and Emax values were derived for positive controls using nonlinear regression of log dose-response curves.

[5] abbreviates: Homo sapiens, LPS 200 ng/mL, ATP 1.75 mM, IL-1β.
Where [6] appears, read: read-out: Rat Half Life (converted).

Molecule `C[C@]1(CO)Cn2ncc([S@](N)(=O)=NC(=O)Nc3c4c(c(F)c5c3CC5)CC4)c2O1` (single isomer, unassigned) [Compound G] showed an IC50 in series [1] of 1.1 nM.
As to `C[C@@H]1COc2c(S(N)(=O)=NC(=O)Nc3c4c(cc5c3CCC5)CCC4)cnn2C1` (single isomer, unassigned) [XG], the bioavailability in series [2] turned out to be 28%. For the same molecule, the IC90 in series [3] (setting [5]) came out at 770 nM. In addition, in series [4], the “% PXR activation @ 10 μM” value was 25%.
As for `CC1(CO)COc2c(S(N)(=O)=NC(=O)Nc3c4c(cc5c3CCC5)CCC4)cnn2C1` (single isomer, unassigned) [XJ], the 90% effect concentration (IC90) in series [3] (setting [5]) worked out at 700 nM. In addition, the “% PXR activation @ 10 μM” value in series [4] is 2.4%.
`CC1(CO)COc2c(S(N)(=O)=NC(=O)Nc3c4c(cc5c3CCC5)CCC4)cnn2C1` (single isomer, unassigned) [XK]: the concentration for an effect of 90% (IC90) in series [3] (LPS 200 ng/mL, ATP 1.75 mM, IL-1β) came out at 560 nM. The “% PXR activation @ 10 μM” value in series [4] amounted to 4%.
Take `C[C@]1(CO)Cn2ncc([S@](N)(=O)=NC(=O)Nc3c4c(cc5c3CC5)CC4)c2O1` [Compound 2, (R,2R)-2-(hydroxymethyl)-2-methyl-N′-(tricyclo[6.2.0.0^3,6]deca-1,3(6), 7-trien-2-ylcarbamoyl)-2,3-dihydropyrazolo[5,1-b]oxazole-7-sulfonimidamide]: the bioavailability in series [2] stood at 53%. For the same molecule, the half-life in series [2] (setting [6]) is more than 2 h. The figures for the concentration for an effect of 90% (IC90) in series [3] (setting [5]) and in series [3] (Homo sapiens) were 43 nM and less than 100 nM, respectively.
As to `C[C@]1(CO)Cn2ncc([S@](N)(=O)=NC(=O)Nc3c4c(c(F)c5c3CC5)CC4)c2O1` [Compound 6, (R,2R)-N′-((7-fluorotricyclo[6.2.0.0^3,6]deca-1,3(6),7-trien-2-yl)carbamoyl)-2-(hydroxymethyl)-2-methyl-2,3-dihydropyrazolo[5,1-b]oxazole-7-sulfonimidamide], the bioavailability in series [2] was found to be 48%. Further, the half-life in series [2] (setting [6]) is 1.8 h; in series [2] (read-out: half life), more than 1.5 h. In addition, the values for the 90% effect concentration (IC90) in series [3] (setting [5]) and in series [3] (Homo sapiens) were 55 nM and less than 100 nM, respectively.
For the molecule `C[C@]1(CO)Cn2ncc([S@](N)(=O)=NC(=O)Nc3c4c(cc5c3CC5)CC4)c2O1` [Compound A, (R,2R)-2-(hydroxymethyl)-2-methyl-N-(tricyclo[6.2.0.0^3,6]deca-1,3(6),7-trien-2-ylcarbamoyl)-2,3-dihydropyrazolo[5,1-b]oxazole-7-sulfonimidamide], in series [1], the concentration for half-maximal inhibition (IC50) was 0.98 nM.
Turning to `CC1(C)COc2c(S(N)(=O)=NC(=O)Nc3c4c(cc5c3CCC5)CCC4)cnn2C1` (stereo not shown) [XA], the bioavailability in series [2] stood at 45%. The half-life in series [2] (setting [6]) is 2 h. Also, the IC90 in series [3] (setting [5]) was 480 nM. Moreover, the “% PXR activation @ 10 μM” value in series [4] worked out at 61%.
Regarding `CC1(C)Cn2ncc(S(N)(=O)=NC(=O)Nc3c4c(cc5c3CCC5)CCC4)c2O1` (stereo not shown) [XB], the bioavailability in series [2] came to 91%. Also, the half-life in series [2] (setting [6]) is 0.87 h. Also, in series [3] (setting [5]), the IC90 was 290 nM. Also, the “% PXR activation @ 10 μM” value in series [4] is reported as 74%.
On to `NS(=O)(=NC(=O)Nc1c2c(cc3c1CC3)CCC2)c1cnn2c1OCCC2` (stereo not shown) [XC], for which the 90% effect concentration (IC90) in series [3] (setting [5]) amounted to 3400 nM. In addition, the “% PXR activation @ 10 μM” value in series [4] is recorded as 26%.
For the molecule `NS(=O)(=NC(=O)Nc1c2c(cc3c1CCC3)CCC2)c1cnn2c1OCCC2` (stereo not shown) [XD], in series [3] (setting [5]), the IC90 stood at 1700 nM. The “% PXR activation @ 10 μM” value in series [4] was determined as 22%.
On to `CC1(C)COc2c(S(N)(=O)=NC(=O)Nc3c4c(cc5c3CC5)CC4)cnn2C1` (stereo not shown) [XE], for which, in series [2], the bioavailability was determined as 126%. In addition, in series [3] (setting [5]), the concentration for an effect of 90% (IC90) came to 520 nM. Moreover, in series [4], the “% PXR activation @ 10 μM” value stood at 63%.
For `NS(=O)(=NC(=O)Nc1c2c(cc3c1CC3)CC2)c1cnn2c1OCC2` (stereo not shown) [XF], the bioavailability in series [2] is 54%. Further, the IC90 in series [3] (setting [5]) came out at 3300 nM. The “% PXR activation @ 10 μM” value in series [4] worked out at 15%.
For the molecule `CC1(C)Cn2ncc(S(N)(=O)=NC(=O)Nc3c4c(cc5c3CC5)CC4)c2O1` (stereo not shown) [XH], the bioavailability in series [2] came to 85%. In series [2] (setting [6]), the half-life was 1.9 h. The concentration for an effect of 90% (IC90) in series [3] (setting [5]) was 130 nM. For the same molecule, the “% PXR activation @ 10 μM” value in series [4] turned out to be 81%.
As to `CC1(C)Cn2ncc(S(N)(=O)=NC(=O)Nc3c4c(cc5c3CC5)CCC4)c2O1` (stereo not shown) [XI], the bioavailability in series [2] was found to be 39%. Also, the IC90 in series [3] (setting [5]) is 240 nM. Also, in series [4], the “% PXR activation @ 10 μM” value turned out to be 90%.
Consider `NS(=O)(=NC(=O)Nc1c2c(cc3c1CCC3)CCC2)c1cnn2c1OC(CO)C2` (stereo not shown) [XL], for which, in series [3] (setting [5]), the IC90 came out at 390 nM. The “% PXR activation @ 10 μM” value in series [4] stood at 3.7%.
With `NS(=O)(=NC(=O)Nc1c2c(cc3c1CCC3)CCC2)c1cnn2c1OCC(O)C2` (stereo not shown) [XM], the IC90 in series [3] (setting [5]) is 2400 nM. For the same molecule, in series [4], the “% PXR activation @ 10 μM” value was 2.4%.
On to `CC1(CO)Cn2ncc(S(N)(=O)=NC(=O)Nc3c4c(cc5c3CCC5)CCC4)c2O1` (stereo not shown) [XN], for which, in series [2], the bioavailability is 36%. Besides, in series [2] (setting [6]), the half-life is 1.2 h. Also, the “% PXR activation @ 10 μM” value in series [4] came to 6.2%.
On to `CNC1COc2c(S(N)(=O)=NC(=O)Nc3c4c(c(F)c5c3CC5)CC4)cnn2C1` (stereo not shown) [XO], for which the bioavailability in series [2] is 32%. The values for the half-life in series [2] (setting [6]) and in series [2] (read-out: half life) were 1.3 h and less than 1 h, respectively. In series [3] (setting [5]), the IC90 came to 110 nM. In series [4], the “% PXR activation @ 10 μM” value was found to be 3.3%.
Consider `COC1CN(C2COc3c(S(N)(=O)=NC(=O)Nc4c5c(cc6c4CC6)CC5)cnn3C2)C1` (stereo not shown) [XP], for which the bioavailability in series [2] was determined as 33%. Further, the half-life in series [2] (setting [6]) was 1.9 h. For the same molecule, the IC90 in series [3] (setting [5]) came out at 130 nM.
